Legend:
Assay in all cases: relative viability (nuclei count vs DMSO), 5 days (fraction); higher = more cells survive
NCI-H2085 = system: NCI-H2085
How it was run: (§1)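 For relative viability, nuclei counts in treated wells were divided by those in vehicle wells. Lung cancer cell lines had been pin-tool dosed in 1536-well plates the day after seeding and cultured for 5 days, then fixed and stained in one step (final 0.05% Triton X-100, 1% formaldehyde, 1 ug/ml Hoechst) and imaged at 4×. Doses were one drug alone or a fixed anchor-drug dose plus five library-drug doses (not always all listed) in √10 steps, and values are duplicate-plate medians.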

NCI-H460 = system: NCI-H460
How it was run: as §1

NCI-H520 = system: NCI-H520
How it was run: as §1

NCI-H1993 = system: NCI-H1993
How it was run: as §1

LK-2 = system: LK-2
How it was run: as §1

ChaGo-K-1 = system: ChaGo-K-1
How it was run: as §1

NCI-H1355 = system: NCI-H1355
How it was run: as §1

SK-LU-1 = system: SK-LU-1
How it was run: as §1

NCI-H838 = system: NCI-H838
How it was run: as §1

LCLC-97TM1 = system: LCLC-97TM1
How it was run: as §1

NCI-H2405 = system: NCI-H2405
How it was run: as §1

201T = system: 201T
How it was run: as §1

HCC-15 = system: HCC-15
How it was run: as §1

NCI-H3122 = system: NCI-H3122
How it was run: as §1

HCC-78 = system: HCC-78
How it was run: as §1

HARA = system: HARA
How it was run: as §1

HCC-366 = system: HCC-366
How it was run: as §1

COR-L23 = system: COR-L23
How it was run: as §1

NCI-H1734 = system: NCI-H1734
How it was run: as §1

NCI-H1792 = system: NCI-H1792
How it was run: as §1

LOU-NH91 = system: LOU-NH91
How it was run: as §1

NCI-H1975 = system: NCI-H1975
How it was run: as §1

NCI-H1650 = system: NCI-H1650
How it was run: as §1

## C=C1C(=O)O[C@@H](CCCCCCCC)[C@@H]1C(=O)O [C-75] + CC1(C)CCC(c2ccc(Cl)cc2)=C(CN2CCN(c3ccc(C(=O)NS(=O)(=O)c4ccc(N[C@H](CCN5CCOCC5)CSc5ccccc5)c(S(=O)(=O)C(F)(F)F)c4)cc3)CC2)C1 [Navitoclax] (partner 0.5 µM)
NCI-H2085; first compound 0.08 µM
  relative viability: 1.15
NCI-H2085; first compound 0.253 µM
  relative viability: 1.2
NCI-H2085; first compound 0.8 µM
  relative viability: 1.07
NCI-H2085; first compound 2.53 µM
  relative viability: 1.11
NCI-H2085; first compound 8 µM
  relative viability: 1.08
NCI-H460; first compound 0.08 µM
  relative viability: 1.14
NCI-H460; first compound 0.253 µM
  relative viability: 1.23
NCI-H460; first compound 0.8 µM
  relative viability: 1.04
NCI-H460; first compound 8 µM
  relative viability: 1.08
NCI-H520; first compound 0.08 µM
  relative viability: 1.13
NCI-H520; first compound 0.253 µM
  relative viability: 1.24
NCI-H520; first compound 0.8 µM
  relative viability: 1
NCI-H520; first compound 2.53 µM
  relative viability: 0.837
NCI-H520; first compound 8 µM
  relative viability: 0.82
NCI-H1993; first compound 0.08 µM
  relative viability: 1.03
NCI-H1993; first compound 0.253 µM
  relative viability: 0.944
NCI-H1993; first compound 0.8 µM
  relative viability: 0.995
NCI-H1993; first compound 2.53 µM
  relative viability: 0.938
NCI-H1993; first compound 8 µM
  relative viability: 1.11
LK-2; first compound 0.08 µM
  relative viability: 0.819
LK-2; first compound 0.253 µM
  relative viability: 0.883
LK-2; first compound 0.8 µM
  relative viability: 1.02
LK-2; first compound 2.53 µM
  relative viability: 0.769
LK-2; first compound 8 µM
  relative viability: 0.648
ChaGo-K-1; first compound 0.08 µM
  relative viability: 0.971
ChaGo-K-1; first compound 0.253 µM
  relative viability: 0.953
ChaGo-K-1; first compound 0.8 µM
  relative viability: 0.833
ChaGo-K-1; first compound 2.53 µM
  relative viability: 0.747
ChaGo-K-1; first compound 8 µM
  relative viability: 0.956
NCI-H1355; first compound 0.08 µM
  relative viability: 0.951
NCI-H1355; first compound 0.253 µM
  relative viability: 0.894
NCI-H1355; first compound 0.8 µM
  relative viability: 0.867
NCI-H1355; first compound 2.53 µM
  relative viability: 0.952
NCI-H1355; first compound 8 µM
  relative viability: 0.956
SK-LU-1; first compound 0.08 µM
  relative viability: 0.932
SK-LU-1; first compound 0.253 µM
  relative viability: 0.85
SK-LU-1; first compound 0.8 µM
  relative viability: 0.763
SK-LU-1; first compound 2.53 µM
  relative viability: 0.709
SK-LU-1; first compound 8 µM
  relative viability: 0.751
NCI-H838; first compound 0.08 µM
  relative viability: 1.12
NCI-H838; first compound 0.253 µM
  relative viability: 0.916
NCI-H838; first compound 0.8 µM
  relative viability: 1.14
NCI-H838; first compound 2.53 µM
  relative viability: 1.03
NCI-H838; first compound 8 µM
  relative viability: 0.954
LCLC-97TM1; first compound 0.08 µM
  relative viability: 0.36
LCLC-97TM1; first compound 0.253 µM
  relative viability: 0.697
LCLC-97TM1; first compound 0.8 µM
  relative viability: 0.357
LCLC-97TM1; first compound 2.53 µM
  relative viability: 0.304
LCLC-97TM1; first compound 8 µM
  relative viability: 0.292
NCI-H2405; first compound 0.08 µM
  relative viability: 0.93
NCI-H2405; first compound 0.253 µM
  relative viability: 0.633
NCI-H2405; first compound 0.8 µM
  relative viability: 0.863
NCI-H2405; first compound 2.53 µM
  relative viability: 0.83
NCI-H2405; first compound 8 µM
  relative viability: 0.802
201T; first compound 0.08 µM
  relative viability: 1.23
201T; first compound 0.253 µM
  relative viability: 1.27
201T; first compound 0.8 µM
  relative viability: 1.23
201T; first compound 2.53 µM
  relative viability: 1.17
201T; first compound 8 µM
  relative viability: 1.21
HCC-15; first compound 0.08 µM
  relative viability: 0.692
HCC-15; first compound 0.253 µM
  relative viability: 0.725
HCC-15; first compound 0.8 µM
  relative viability: 0.686
HCC-15; first compound 2.53 µM
  relative viability: 0.59
HCC-15; first compound 8 µM
  relative viability: 0.733
NCI-H3122; first compound 0.08 µM
  relative viability: 0.973
NCI-H3122; first compound 0.253 µM
  relative viability: 1.05
NCI-H3122; first compound 0.8 µM
  relative viability: 0.986
NCI-H3122; first compound 8 µM
  relative viability: 1.09
HCC-78; first compound 0.08 µM
  relative viability: 0.791
HCC-78; first compound 0.253 µM
  relative viability: 0.834
HCC-78; first compound 0.8 µM
  relative viability: 0.75
HCC-78; first compound 2.53 µM
  relative viability: 0.708
HCC-78; first compound 8 µM
  relative viability: 0.864
HARA; first compound 0.08 µM
  relative viability: 1.07
HARA; first compound 0.253 µM
  relative viability: 1.26
HARA; first compound 0.8 µM
  relative viability: 1.12
HARA; first compound 8 µM
  relative viability: 1.14
HCC-366; first compound 0.08 µM
  relative viability: 1.03
HCC-366; first compound 0.253 µM
  relative viability: 1.1
HCC-366; first compound 0.8 µM
  relative viability: 0.943
HCC-366; first compound 8 µM
  relative viability: 0.833
COR-L23; first compound 0.08 µM
  relative viability: 0.966
COR-L23; first compound 0.253 µM
  relative viability: 0.884
COR-L23; first compound 0.8 µM
  relative viability: 0.955
COR-L23; first compound 2.53 µM
  relative viability: 0.989
COR-L23; first compound 8 µM
  relative viability: 0.964
NCI-H1734; first compound 0.08 µM
  relative viability: 0.828
NCI-H1734; first compound 0.253 µM
  relative viability: 0.778
NCI-H1734; first compound 0.8 µM
  relative viability: 0.815
NCI-H1734; first compound 2.53 µM
  relative viability: 0.629
NCI-H1734; first compound 8 µM
  relative viability: 0.754
NCI-H1792; first compound 0.08 µM
  relative viability: 0.595
NCI-H1792; first compound 0.253 µM
  relative viability: 0.575
NCI-H1792; first compound 0.8 µM
  relative viability: 0.46
NCI-H1792; first compound 2.53 µM
  relative viability: 0.303
NCI-H1792; first compound 8 µM
  relative viability: 0.59
LOU-NH91; first compound 0.08 µM
  relative viability: 0.756
LOU-NH91; first compound 0.253 µM
  relative viability: 0.679
LOU-NH91; first compound 0.8 µM
  relative viability: 0.643
LOU-NH91; first compound 2.53 µM
  relative viability: 0.55
LOU-NH91; first compound 8 µM
  relative viability: 0.776
NCI-H1975; first compound 0.08 µM
  relative viability: 0.983
NCI-H1975; first compound 0.253 µM
  relative viability: 1.1
NCI-H1975; first compound 0.8 µM
  relative viability: 1.12
NCI-H1975; first compound 2.53 µM
  relative viability: 1.1
NCI-H1975; first compound 8 µM
  relative viability: 1.14
NCI-H1650; first compound 0.08 µM
  relative viability: 1.22
NCI-H1650; first compound 0.253 µM
  relative viability: 1.36
NCI-H1650; first compound 0.8 µM
  relative viability: 1.22
NCI-H1650; first compound 2.53 µM
  relative viability: 1.36
NCI-H1650; first compound 8 µM
  relative viability: 0.97

Source: the supplement of paper PMC10307832
